Assay type in all cases: cell-based, Chinese hamster
The test system of assay [1] is CHO-DUX-B11 (dhfr-) cells transfected with pFD11 (pFD11.1). Kind of assay: Growth inhibition by MTX, 3 day cell count assay, pFD11 transfected clone. The following applies: Cricetulus griseus, 72 h; cells from the pFD11 transfected colony (pFD11.1), wild type DHFR plasmid; 3 days, cells counted; read-out: level of MTX which inhibits cell growth by 50 percent over the 3 day assay. As for the experimental part: (§1) A deficiency of the wild type DHFR as a selectable marker in tissue culture systems is the relatively low degree of MTX resistance conferred upon the transfected cells by the transfected wild type enzyme expression plasmid. […] Individual colonies were isolated from pFR400 or pFDll transfected dhfr- cells and propagated in the absence of MTX. Equal amounts of cells from two clones and of CHO-Kl cells were trypsinized and split into 60 mm dishes. Various levels of MTX were added to each dish, the cells incubated for 3 days, and then counted.
(§2) The pFDll transfected cells were clearly less capable of growing in high levels of MTX than were the CHO-K1 (DHFR^+) cells grown under identical conditions. The level of MTX which inhibits cell growth by 50 percent over the 3 day assay was approximately 3 nM for cells derived from the pFDll transfected colony (pFD11.1) and was 20nM for CHO-K1 cells. In contrast to this, the colony (pFR400.1) isolated from the cells transfected with pFR400, was able to grow in extremely high levels of MTX. The 50 percent inhibition level for FR400.1 cells is approximately 3000 nM.

Assay [2] concerns CHO-K1 cells. Description: Growth inhibition by MTX, 3 day cell count assay, untransformed wild type cells. The following applies: Cricetulus griseus, 72 h, CHO-K1 (DHFR+) cells, 3 days, cells counted, read-out: level of MTX which inhibits cell growth by 50 percent over the 3 day assay. As for the experimental part:
as §1, §2

Assay [3] deals with CHO-DUX-B11 (dhfr-) cells transfected with pFR400 (pFR400.1). Description: Growth inhibition by MTX, 3 day cell count assay, pFR400 transfected clone. The note with it: Cricetulus griseus, 72 h; FR400.1 cells (colony from pFR400 transfected dhfr- cells, mutant DHFR 3T6 R400); 3 days, cells counted; read-out: 50 percent inhibition level. As for the experimental part: as §1, §2

The record followed here is patent publication EP0117060A2, “Methods of screening and amplification in eukaryotic host cells, and nucleotide sequences and expression vectors for use therein” (GENENTECH, INC., priority 1983, dated 1984).

With `CN(Cc1cnc2nc(N)nc(N)c2n1)c1ccc(C(=O)N[C@@H](CCC(=O)O)C(=O)O)cc1` [MTX, methotrexate], the IC50 in assay [1] was roughly 3 nM; in assay [2], 20 nM; in assay [3], roughly 3000 nM.
